Experimental data: patent publication US20170087174A1, “COMBINATION THERAPY REGIMEN FOR TREATMENT OF HCV” (JANSSEN PHARMACEUTICALS, INC., priority 2015, published 2017)
pIC50: −log10 of the molar value.

Assays:
OATP1B3 = target: T1, OATP1B3 (Homo sapiens, UniProt Q9NPD5); conditions: in vitro; cited from earlier work
T1 sequence (Q9NPD5 1-702): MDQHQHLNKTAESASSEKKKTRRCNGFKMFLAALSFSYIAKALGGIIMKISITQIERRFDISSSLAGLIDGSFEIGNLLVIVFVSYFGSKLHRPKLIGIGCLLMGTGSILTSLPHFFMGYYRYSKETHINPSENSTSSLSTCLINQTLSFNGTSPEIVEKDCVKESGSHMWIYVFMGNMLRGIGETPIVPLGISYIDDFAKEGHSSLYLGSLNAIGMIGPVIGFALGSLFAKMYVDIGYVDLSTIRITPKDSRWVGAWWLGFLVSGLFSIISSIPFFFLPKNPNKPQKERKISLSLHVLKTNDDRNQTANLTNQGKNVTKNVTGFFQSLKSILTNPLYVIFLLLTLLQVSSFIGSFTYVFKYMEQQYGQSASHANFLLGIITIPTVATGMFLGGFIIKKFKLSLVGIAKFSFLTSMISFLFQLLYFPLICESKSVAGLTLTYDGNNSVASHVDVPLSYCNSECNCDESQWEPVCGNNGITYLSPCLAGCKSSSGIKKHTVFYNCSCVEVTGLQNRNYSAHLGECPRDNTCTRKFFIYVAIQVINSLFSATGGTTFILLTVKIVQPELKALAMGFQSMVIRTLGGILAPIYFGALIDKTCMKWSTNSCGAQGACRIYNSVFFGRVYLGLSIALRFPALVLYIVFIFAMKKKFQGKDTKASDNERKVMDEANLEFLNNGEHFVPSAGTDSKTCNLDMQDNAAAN

BCRP = target: T2, BCRP (Homo sapiens, UniProt Q9UNQ0); conditions: in vitro; cited from earlier work
T2 sequence (Q9UNQ0 1-655): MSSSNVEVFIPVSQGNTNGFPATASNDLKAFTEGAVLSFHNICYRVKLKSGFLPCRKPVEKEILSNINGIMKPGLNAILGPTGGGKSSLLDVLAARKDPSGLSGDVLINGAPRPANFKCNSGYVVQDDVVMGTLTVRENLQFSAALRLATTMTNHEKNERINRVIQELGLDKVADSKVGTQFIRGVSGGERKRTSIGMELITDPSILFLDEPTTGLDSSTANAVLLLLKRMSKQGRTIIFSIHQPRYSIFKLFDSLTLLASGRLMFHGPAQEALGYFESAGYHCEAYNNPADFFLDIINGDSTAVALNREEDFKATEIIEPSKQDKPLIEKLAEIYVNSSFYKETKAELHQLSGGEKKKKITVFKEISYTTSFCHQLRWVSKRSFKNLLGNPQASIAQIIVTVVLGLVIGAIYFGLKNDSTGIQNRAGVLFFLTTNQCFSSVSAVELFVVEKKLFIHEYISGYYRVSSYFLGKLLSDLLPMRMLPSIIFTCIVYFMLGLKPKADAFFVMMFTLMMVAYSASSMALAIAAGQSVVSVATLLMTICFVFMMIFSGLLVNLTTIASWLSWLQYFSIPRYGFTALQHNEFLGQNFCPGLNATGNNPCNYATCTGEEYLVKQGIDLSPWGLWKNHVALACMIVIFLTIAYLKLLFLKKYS

[1] = Phase 2a open-label combination study: pharmacokinetics (exposure); assay type: in vivo, human
Experimental: A randomized, Phase 2a, open-label study was carried out to evaluate the safety, pharmacokinetics and efficacy of the combination of Compound (III), Odalasvir and Simeprevir in Genotype 1 treatment-naïve subjects with chronic hepatitis C. Other treatment-naïve subjects included Genotype 2, 3, 4, 5 and 6.
The aim of the study was to determine the efficacy, pharmacokinetics (PK), and safety of Compound (III)+Odalasvir±SMV in HCV-infected subjects.
This was an open-label study evaluating various dosing regimens of Compound (III)+Odalasvir±SMV for 6-8 weeks in treatment-naïve HCV-infected subjects with varying clinical characteristics (e.g., GT 1 or 3, presence/absence of compensated Child Pugh A cirrhosis). Efficacy, PK and safety evaluations were conducted during and through 24 weeks post dosing. Up to 15 cohorts were enrolled; data was generated from cohorts that have completed dosing.

BSEP = BSEP (Homo sapiens, UniProt O95342); conditions: in vitro, cited from earlier work
Sequence of BSEP (O95342 whole entry): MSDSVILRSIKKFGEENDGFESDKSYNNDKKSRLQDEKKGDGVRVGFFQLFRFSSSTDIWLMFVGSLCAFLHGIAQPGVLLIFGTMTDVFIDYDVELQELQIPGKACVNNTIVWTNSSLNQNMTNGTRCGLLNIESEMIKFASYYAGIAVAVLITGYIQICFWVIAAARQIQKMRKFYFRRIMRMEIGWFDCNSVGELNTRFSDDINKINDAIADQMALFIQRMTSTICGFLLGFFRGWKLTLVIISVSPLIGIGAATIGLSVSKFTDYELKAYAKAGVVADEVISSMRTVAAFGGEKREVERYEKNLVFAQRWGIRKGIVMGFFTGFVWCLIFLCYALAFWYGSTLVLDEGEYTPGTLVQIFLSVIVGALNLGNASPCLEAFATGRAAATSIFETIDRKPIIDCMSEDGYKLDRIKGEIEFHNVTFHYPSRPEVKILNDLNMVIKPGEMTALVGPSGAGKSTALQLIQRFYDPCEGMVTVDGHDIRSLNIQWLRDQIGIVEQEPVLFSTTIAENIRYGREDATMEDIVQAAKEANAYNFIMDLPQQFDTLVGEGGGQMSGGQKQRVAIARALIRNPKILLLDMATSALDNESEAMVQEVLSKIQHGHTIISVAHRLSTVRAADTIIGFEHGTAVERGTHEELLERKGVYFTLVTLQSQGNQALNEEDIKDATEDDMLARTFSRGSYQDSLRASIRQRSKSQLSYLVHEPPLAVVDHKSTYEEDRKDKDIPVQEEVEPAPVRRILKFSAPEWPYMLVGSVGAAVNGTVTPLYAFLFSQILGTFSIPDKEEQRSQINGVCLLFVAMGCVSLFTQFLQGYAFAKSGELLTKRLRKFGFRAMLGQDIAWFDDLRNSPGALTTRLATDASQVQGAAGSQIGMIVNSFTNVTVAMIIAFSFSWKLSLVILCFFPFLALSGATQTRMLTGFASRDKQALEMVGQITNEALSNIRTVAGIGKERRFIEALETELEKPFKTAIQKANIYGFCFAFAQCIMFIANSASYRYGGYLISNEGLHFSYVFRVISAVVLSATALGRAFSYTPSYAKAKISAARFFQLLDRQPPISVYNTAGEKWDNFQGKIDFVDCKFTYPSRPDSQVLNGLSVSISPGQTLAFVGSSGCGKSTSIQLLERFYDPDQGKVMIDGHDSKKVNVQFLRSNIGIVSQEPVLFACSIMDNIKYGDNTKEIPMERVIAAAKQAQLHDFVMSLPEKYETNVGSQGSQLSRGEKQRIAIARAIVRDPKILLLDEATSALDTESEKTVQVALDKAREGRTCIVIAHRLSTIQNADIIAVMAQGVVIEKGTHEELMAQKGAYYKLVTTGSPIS

CYP2C8 = target: T3, CYP2C8 (Homo sapiens, UniProt P10632); assay: CYP2C8 inhibition; assay type: in vitro ADME; conditions: up to 10 μM
T3 sequence (P10632 1-490): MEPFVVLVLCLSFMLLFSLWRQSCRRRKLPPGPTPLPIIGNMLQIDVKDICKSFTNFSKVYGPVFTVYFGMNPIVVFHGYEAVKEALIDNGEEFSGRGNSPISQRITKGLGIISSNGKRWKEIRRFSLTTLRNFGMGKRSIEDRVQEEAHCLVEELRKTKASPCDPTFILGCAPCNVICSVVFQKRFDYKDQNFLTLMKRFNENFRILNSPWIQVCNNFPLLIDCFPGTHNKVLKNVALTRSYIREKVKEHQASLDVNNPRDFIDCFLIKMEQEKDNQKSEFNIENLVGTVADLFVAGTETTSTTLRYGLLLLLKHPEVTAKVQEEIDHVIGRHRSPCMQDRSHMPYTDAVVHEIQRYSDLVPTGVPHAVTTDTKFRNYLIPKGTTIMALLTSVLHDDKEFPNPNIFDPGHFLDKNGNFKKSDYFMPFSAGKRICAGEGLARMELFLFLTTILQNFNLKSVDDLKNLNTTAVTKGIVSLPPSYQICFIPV

CYP3A4 = CYP3A4 induction; assay type: in vitro ADME; conditions: up to 10 μM
CYP1A2 = CYP1A2 induction; assay type: in vitro ADME; conditions: up to 10 μM
NTCP = target: T4, NTCP (Homo sapiens, UniProt Q14973); conditions: in vitro; read-out: other OATPs NTCP inhibition IC50; cited from earlier work
T4 sequence (Q14973 1-349): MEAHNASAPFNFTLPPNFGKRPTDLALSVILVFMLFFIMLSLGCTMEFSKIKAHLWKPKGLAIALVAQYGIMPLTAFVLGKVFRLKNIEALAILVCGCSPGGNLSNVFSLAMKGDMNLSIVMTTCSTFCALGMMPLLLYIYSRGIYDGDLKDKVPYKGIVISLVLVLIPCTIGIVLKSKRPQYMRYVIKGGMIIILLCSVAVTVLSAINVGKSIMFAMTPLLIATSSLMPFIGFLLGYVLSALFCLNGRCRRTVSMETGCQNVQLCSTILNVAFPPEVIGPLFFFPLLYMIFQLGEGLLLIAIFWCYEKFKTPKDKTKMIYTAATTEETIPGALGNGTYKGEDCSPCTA

Row | Structure (SMILES) | OATP1B3 inhibition (in words) (OATP1B3) | BCRP inhibition (in words) (BCRP) | observed exposure versus anticipated ([1]; Cohort 1 / group (i)) | decrease of exposure with dosing frequency ([1]; reducing ODV dosing from QD to QOD) | BSEP inhibition (in words) (BSEP) | effect on CYP2C8 (CYP2C8) | decrease of exposure with dose ([1]; in vivo) | observed exposure versus anticipated ([1]; in vivo) | pIC50 (BSEP; read-out: BSEP inhibition IC50) | induction of CYP3A4 (CYP3A4) | induction of CYP1A2 (CYP1A2) | pIC50 (NTCP)
1 | CC(C)OC(=O)[C@H](C)N[P@](=O)(OC[C@@]1(F)O[C@@H](n2ccc(=O)[nH]c2=O)[C@](C)(O)[C@@H]1O)Oc1ccccc1 [Compound (III), isopropyl ((S)-(((2S,3S,4R,5R)-5-(2,4-dioxo-3,4-dihydropyrimidin-1 (2H)-yl)-2-fluoro-3,4-dihydroxy-4-methyltetrahydrofuran-2-yl)methoxy)(phenoxy)phosphoryl)-L-alaninate] | no in vitro inhibition | no in vitro inhibition |  |  |  |  |  |  |  |  |  | 
2 | COC(=O)N[C@H](C(=O)N1[C@H](c2nc3cc(-c4cc5ccc4CCc4ccc(c(-c6ccc7[nH]c([C@@H]8C[C@@H]9CCCC[C@@H]9N8C(=O)[C@@H](NC(=O)OC)C(C)C)nc7c6)c4)CC5)ccc3[nH]2)C[C@@H]2CCCC[C@@H]21)C(C)C [ODV, Odalasvir] | no inhibition | no inhibition | higher than anticipated | proportionally | no inhibition | limited effect |  |  |  |  |  | 
3 | COc1ccc2c(O[C@@H]3C[C@H]4C(=O)N[C@]5(C(=O)NS(=O)(=O)C6CC6)C[C@H]5/C=C\CCCCN(C)C(=O)[C@@H]4C3)cc(-c3nc(C(C)C)cs3)nc2c1C [SMV, Simeprevir, reference compound] |  |  |  |  | strong/moderate |  | less than proportionally | higher than anticipated | 5.77 | no induction | no induction | 5.66
